Values after ≈ are worked out from the molar mass of the structure shown.
Assays:
Type in all cases: cell-based
[1] = test system: Staphylococcus aureus ATCC 6538P; assay: In vitro agar dilution MIC, organism code AA; details: Table 1B, unit assumed
Outline: (§1)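 In this agar dilution assay, strains are spotted from 1:100 dilutions (1:10 when slow-growing, e.g. Streptococcus) onto Brain Heart Infusion agar carrying the test compound. After 20 to 24 hours at 35-37° C, the lowest inhibitory concentration is read by eye.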

[2] = test system: Staphylococcus aureus A5177; assay: In vitro agar dilution MIC, organism code BB; details: Table 1B, in µg/mL (unit assumed)
Outline: as §1

[3] = test system: Staphylococcus aureus A-5278; assay: In vitro agar dilution MIC, organism code CC; details: Table 1B, unit assumed
Outline: as §1

[4] = test system: Staphylococcus aureus CMX 642A; assay: In vitro agar dilution MIC, organism code DD; details: Table 1B, unit assumed
Outline: as §1

[5] = test system: Staphylococcus aureus NCTC10649M; assay: In vitro agar dilution MIC, organism code EE; details: Table 1B, unit assumed
Outline: as §1

[6] = test system: Staphylococcus aureus CMX 553; assay: In vitro agar dilution MIC, organism code FF; details: Table 1B, unit assumed
Outline: as §1

[7] = test system: Staphylococcus aureus 1775; assay: In vitro agar dilution MIC, organism code GG; details: Table 1B, unit assumed
Outline: as §1

[8] = test system: Staphylococcus epidermidis 3519; assay: In vitro agar dilution MIC, organism code HH; details: Table 1B, in µg/mL (unit assumed)
Outline: as §1

[9] = test system: Enterococcus faecium ATCC 8043; assay: In vitro agar dilution MIC, organism code II; details: Table 1B, unit assumed
Outline: as §1

[10] = test system: Streptococcus bovis A-5169; assay: In vitro agar dilution MIC, organism code JJ; details: Table 1B, unit assumed
Outline: as §1

[11] = test system: Streptococcus agalactiae CMX 508; assay: In vitro agar dilution MIC, organism code KK; details: Table 1B, unit assumed
Outline: as §1

[12] = test system: Streptococcus pyogenes EES61; assay: In vitro agar dilution MIC, organism code LL; details: unit assumed
Outline: as §1

[13] = test system: Streptococcus pyogenes 930; assay: In vitro agar dilution MIC, organism code MM; details: unit assumed
Outline: as §1

[14] = test system: Streptococcus pyogenes PIU 2548; assay: In vitro agar dilution MIC, organism code NN; details: unit assumed
Outline: as §1

[15] = test system: Micrococcus luteus ATCC 9341; assay: In vitro agar dilution MIC, organism code OO; details: Table 1B, unit assumed
Outline: as §1

[16] = test system: Micrococcus luteus ATCC 4698; assay: In vitro agar dilution MIC, organism code PP; details: Table 1B, in µg/mL (unit assumed)
Outline: as §1

Escherichia coli JUHL = assay: In vitro agar dilution MIC, organism code QQ; details: Table 1B, in µg/mL (unit assumed)
Outline: as §1

Escherichia coli SS = assay: In vitro agar dilution MIC, organism code RR; details: Table 1B, in µg/mL (unit assumed)
Outline: as §1

Escherichia coli DC-2 = assay: In vitro agar dilution MIC, organism code SS; details: Table 1B, unit assumed
Outline: as §1

Candida albicans CCH 442 = assay: In vitro agar dilution MIC, organism code TT; details: Table 1B, unit assumed
Outline: as §1

[17] = test system: Mycobacterium smegmatis ATCC 114; assay: In vitro agar dilution MIC, organism code UU; details: Table 1B, in µg/mL (unit assumed)
Outline: as §1

[18] = test system: Nocardia asteroides ATCC 9970; assay: In vitro agar dilution MIC, organism code VV; details: Table 1B, in µg/mL (unit assumed)
Outline: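 BHI agar dilution, twelve plates; inoculum 1:100, 1:10 for Streptococcus/Micrococcus; Steers replicator; 35-37° C, 20-24 h. Endpoint: no growth/slight haze/sparse colonies vs. no-drug control. Erythromycin A reference plate.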

[19] = test system: Haemophilis influenzae DILL AMP R; assay: In vitro agar dilution MIC, organism code WW; details: unit assumed
Outline: as §1

[20] = test system: Streptococcus pneumoniae ATCC 6303; assay: In vitro agar dilution MIC, organism code XX; details: unit assumed
Outline: as §1

[21] = test system: Streptococcus pneumoniae GYR 1171; assay: In vitro agar dilution MIC, organism code YY; details: Table 1B, unit assumed
Outline: as §1

[22] = test system: Streptococcus pneumoniae 5979; assay: In vitro agar dilution MIC, organism code ZZ; details: unit assumed
Outline: as §1

[23] = test system: Streptococcus pneumoniae 5649; assay: In vitro agar dilution MIC, organism code ZZA; details: unit assumed
Outline: as §1

| Compound | MIC [1] | MIC [2] | MIC [3] | MIC [4] | MIC [5] | MIC [6] | MIC [7] | MIC [8] | MIC [9] | MIC [10] | MIC [11] | MIC ([12]; Table 1B) | MIC ([13]; Table 1B) | MIC ([14]; Table 1B) | MIC [15] | MIC [16] | MIC (Escherichia coli JUHL) | MIC (Escherichia coli SS) | MIC (Escherichia coli DC-2) | MIC (Candida albicans CCH 442) | further results |
| --- | --- | --- | --- | --- | --- | --- | --- | --- | --- | --- | --- | --- | --- | --- | --- | --- | --- | --- | --- | --- | --- |
| CC[C@H]1OC(=O)[C@@](C)(F)C(=O)[C@H](C)[C@@H](O[C@@H]2O[C@H](C)C[C@H](N(C)C)[C@H]2O)[C@](C)(OC/C=C/c2cnc3ccc(C=NN)cc3c2)C[C@@H](C)C(=O)[C@H](C)[C@H]2NC(=O)O[C@@]21C [Example 19] | 0.1 µg/mL (≈ 0.121 µM) | 0.2 | > 100 µg/mL | 0.2 µg/mL (≈ 0.242 µM) | 0.2 µg/mL (≈ 0.242 µM) | 0.2 µg/mL (≈ 0.242 µM) | > 100 µg/mL | 0.2 | 0.05 µg/mL (≈ 0.0605 µM) | ≤ 0.005 µg/mL | 0.02 µg/mL (≈ 0.0242 µM) | 0.02 µg/mL (≈ 0.0242 µM) | 1.56 µg/mL (≈ 1.89 µM) | 0.2 µg/mL (≈ 0.242 µM) | 0.02 µg/mL (≈ 0.0242 µM) | 0.1 | 100 | 0.78 | 100 µg/mL (≈ 121 µM) | > 100 µg/mL | MIC [17]: 0.78; MIC [18]: 0.02; MIC ([19]; Table 1B): 2 µg/mL (≈ 2.42 µM); MIC ([20]; Table 1B): 0.06 µg/mL (≈ 0.0726 µM); MIC [21]: 0.06 µg/mL (≈ 0.0726 µM); MIC ([22]; Table 1B): 1 µg/mL (≈ 1.21 µM); MIC ([23]; Table 1B): 0.5 µg/mL (≈ 0.605 µM) |
| CC[C@H]1OC(=O)[C@@](C)(F)C(=O)[C@H](C)[C@@H](O[C@@H]2O[C@H](C)C[C@H](N(C)C)[C@H]2O)[C@](C)(OC/C=C/c2cnc3ccc(NC)cc3c2)C[C@@H](C)C(=O)[C@H](C)[C@H]2NC(=O)O[C@@]21C [Example 16] | 0.05 µg/mL (≈ 0.0615 µM) | 0.05 | > 100 µg/mL | 0.05 µg/mL (≈ 0.0615 µM) | 0.05 µg/mL (≈ 0.0615 µM) | 0.05 µg/mL (≈ 0.0615 µM) | > 100 µg/mL | 0.05 | 0.02 µg/mL (≈ 0.0246 µM) | ≤ 0.005 µg/mL | 0.01 µg/mL (≈ 0.0123 µM) | 0.01 µg/mL (≈ 0.0123 µM) | 0.39 µg/mL (≈ 0.48 µM) | 0.05 µg/mL (≈ 0.0615 µM) | 0.01 µg/mL (≈ 0.0123 µM) | 0.05 | 50 | 0.2 | 50 µg/mL (≈ 61.5 µM) | > 100 µg/mL | MIC [17]: 0.39; MIC [18]: 0.01; MIC ([19]; Table 1B): 2 µg/mL (≈ 2.46 µM); MIC ([20]; Table 1B): 0.03 µg/mL (≈ 0.0369 µM); MIC [21]: 0.03 µg/mL (≈ 0.0369 µM); MIC ([22]; Table 1B): 1 µg/mL (≈ 1.23 µM); MIC ([23]; Table 1B): 0.25 µg/mL (≈ 0.308 µM) |
| CC[C@H]1OC(=O)C(C)(F)C(=O)[C@H](C)[C@@H](O[C@@H]2O[C@H](C)C[C@H](N(C)C)[C@H]2O)[C@](C)(OCC#Cc2cnc3ccccc3c2)C[C@@H](C)C(=O)[C@H](C)[C@H]2NC(=O)O[C@@]21C (some centres unmarked) [Example 26] | 0.05 µg/mL (≈ 0.0639 µM) | 0.05 | > 100 µg/mL | 0.05 µg/mL (≈ 0.0639 µM) | 0.1 µg/mL (≈ 0.128 µM) | 0.05 µg/mL (≈ 0.0639 µM) | > 100 µg/mL | 0.05 | 0.02 µg/mL (≈ 0.0256 µM) | 0.01 µg/mL (≈ 0.0128 µM) | 0.02 µg/mL (≈ 0.0256 µM) | 0.02 µg/mL (≈ 0.0256 µM) | 0.1 µg/mL (≈ 0.128 µM) | 0.05 µg/mL (≈ 0.0639 µM) | 0.02 µg/mL (≈ 0.0256 µM) | 0.05 | 25 | 0.2 | 25 µg/mL (≈ 32 µM) | > 100 µg/mL | MIC [17]: 0.2; MIC [18]: 0.01; MIC ([19]; Table 1B): 2 µg/mL (≈ 2.56 µM); MIC ([20]; Table 1B): ≤ 0.004 µg/mL; MIC [21]: ≤ 0.004 µg/mL; MIC ([22]; Table 1B): 16 µg/mL (≈ 20.5 µM); MIC ([23]; Table 1B): 0.25 µg/mL (≈ 0.32 µM) |
| CC[C@H]1OC(=O)[C@@](C)(F)C(=O)[C@H](C)[C@@H](O[C@@H]2O[C@H](C)C[C@H](N(C)C)[C@H]2O)[C@](C)(OC/C=C/c2ccc3nccnc3c2)C[C@@H](C)C(=O)[C@H](C)[C@H]2NC(=O)O[C@@]21C [Example 12] | 0.05 µg/mL (≈ 0.0637 µM) | 0.05 | > 100 µg/mL | 0.05 µg/mL (≈ 0.0637 µM) | 0.05 µg/mL (≈ 0.0637 µM) | 0.05 µg/mL (≈ 0.0637 µM) | > 100 µg/mL | 0.05 | 0.01 µg/mL (≈ 0.0127 µM) | ≤ 0.005 µg/mL | 0.01 µg/mL (≈ 0.0127 µM) | 0.01 µg/mL (≈ 0.0127 µM) | 0.2 µg/mL (≈ 0.255 µM) | 0.05 µg/mL (≈ 0.0637 µM) | ≤ 0.005 µg/mL | 0.05 | 12.5 | 0.1 | 12.5 µg/mL (≈ 15.9 µM) | > 100 µg/mL | MIC ([12]; Table 1D): ≤ 0.04 µg/mL; MIC ([13]; Table 1D): 0.5 µg/mL (≈ 0.637 µM); MIC ([14]; Table 1D): 0.125 µg/mL (≈ 0.159 µM); MIC [17]: 0.2; MIC [18]: ≤ 0.005; MIC ([19]; Table 1B): 2 µg/mL (≈ 2.55 µM); MIC ([19]; Table 1D): 2 µg/mL (≈ 2.55 µM); MIC ([20]; Table 1B): ≤ 0.004 µg/mL; MIC ([20]; Table 1D): ≤ 0.004 µg/mL; MIC [21]: ≤ 0.004 µg/mL; MIC ([22]; Table 1B): 1 µg/mL (≈ 1.27 µM); MIC ([22]; Table 1D): 1 µg/mL (≈ 1.27 µM); MIC ([23]; Table 1B): 0.125 µg/mL (≈ 0.159 µM); MIC ([23]; Table 1D): 0.125 µg/mL (≈ 0.159 µM) |
| CC[C@H]1OC(=O)[C@@](C)(F)C(=O)[C@H](C)[C@@H](O[C@@H]2O[C@H](C)C[C@H](N(C)C)[C@H]2O)[C@](C)(OC/C=C/c2cnc3ccccc3c2)C[C@@H](C)C(=O)[C@H](C)[C@H]2NC(=O)O[C@@]21C [Example 5] | 0.05 µg/mL (≈ 0.0638 µM) | 0.05 | > 100 µg/mL | 0.05 µg/mL (≈ 0.0638 µM) | 0.05 µg/mL (≈ 0.0638 µM) | 0.05 µg/mL (≈ 0.0638 µM) | > 100 µg/mL | 0.05 | 0.02 µg/mL (≈ 0.0255 µM) | 0.005 µg/mL (≈ 0.00638 µM) | 0.01 µg/mL (≈ 0.0128 µM) | 0.01 µg/mL (≈ 0.0128 µM) | 0.2 µg/mL (≈ 0.255 µM) | 0.05 µg/mL (≈ 0.0638 µM) | 0.01 µg/mL (≈ 0.0128 µM) | 0.1 | 25 | 0.2 | 25 µg/mL (≈ 31.9 µM) | 12.5 µg/mL (≈ 15.9 µM) | MIC ([12]; Table 1D): 0.03 µg/mL (≈ 0.0383 µM); MIC ([13]; Table 1D): 0.25 µg/mL (≈ 0.319 µM); MIC ([14]; Table 1D): 0.25 µg/mL (≈ 0.319 µM); MIC [17]: 0.2; MIC [18]: 0.005; MIC ([19]; Table 1B): 1 µg/mL (≈ 1.28 µM); MIC ([19]; Table 1D): 1 µg/mL (≈ 1.28 µM); MIC ([20]; Table 1B): 0.03 µg/mL (≈ 0.0383 µM); MIC ([20]; Table 1D): 0.03 µg/mL (≈ 0.0383 µM); MIC [21]: 0.03 µg/mL (≈ 0.0383 µM); MIC ([22]; Table 1B): 1 µg/mL (≈ 1.28 µM); MIC ([22]; Table 1D): 1 µg/mL (≈ 1.28 µM); MIC ([23]; Table 1B): 0.25 µg/mL (≈ 0.319 µM); MIC ([23]; Table 1D): 0.25 µg/mL (≈ 0.319 µM) |
